Counter-ions that a name gives are not always drawn.
Assays:
SK-Hep-1 cells = assay: Uptake of MKH-ester derivatives in HCC cells (Michaelis-Menten kinetics); type: in vitro ADME; conditions: Michaelis-Menten fit, 95% confidence interval in square brackets
Method: (§1) To assess the uptake of the intrinsic MKH-ester derivatives as the first step of MKH delivery into HCC cells, the velocities of uptake of MKH-ester derivatives were plotted and fitted with the Michaelis--Menten model (as shown in Figure 3), and the calculated kinetic parameters were determined (Table 1). All three derivatives increased in both PLC/PRF/5 and SK-Hep-1 cells in a dose-dependent manner. The uptake of MKH-SUC was clearly higher than that of MKH-DMG and MKH-ACT at all concentrations examined. The ratio of the […] (Vmax/Km) for MKH-SUC was about 5- to 10-fold higher than those for MKH-ACT and MKH-DMG in both cell lines.
(§2) HCC cells were plated at 1.5 × 10^5 cells/well in 6-well plates and allowed to attach for 48 h. Cells were cultured in medium containing MK-4, MKH-ACT, MKH-DMG or MKH-SUC for various intervals. After the drug exposure, media were removed, and cells were washed three times with PBS. Cells were collected in 1 mL of PBS and sonicated. The cell homogenates were combined with an equal volume of methanol and three times volume of n-hexane, vortexed for 2 min and centrifuged at 1750× g for 10 min. The organic layer was evaporated under N2 gas. The residue was reconstituted with 100 μL of methanol, sonicated for 10 s and subjected to LC-UV or LC-MS/MS analysis, as described below. The protein concentration of the cell homogenate was determined using a BCA protein assay kit.
(§3) The LC system was the same as that described in the 4.8.1 LC-MS/MS section, and the UV detector was a Prominence SPD-20A (Shimadzu Corp., Kyoto, Japan). Separations were performed on the same column mentioned in the 4.8.1 LC-MS/MS section and monitored at a wavelength of 240 nm. The mobile flow was a binary gradient: (A) 0.1% acetic acid in water and (B) 0.1% acetic acid in methanol. The total flow rate was 0.3 mL/min; 0 min at 80% B, 1 min at 80% B, 4.0 min at 100% B, 7.0 min at 100% B and 8.0 min at 80% B. The Column temperature was 40 °C. The retention times were as follows: MKH-DMG, 9.2 min; MKH-ACT, 8.2 min; and MKH-SUC, 6.6 min.
(§4) For the determination of Km and Vmax for the uptake and enzymatic activation of MKH-esters, concentration-dependency data were fit to the Michaelis--Menten equation:V = Vmax·[S]/(Km + [S])(1) where V represents the velocity of action between the substrate and transportation/enzymatic reaction, [S] refers to the concentration of the substrate and Km is defined as the concentration of substrate at the half-maximal rate of action (Vmax). Data were analyzed by GraphPad Prism (GraphPad Software).

[1] = as above; type: in vitro ADME; conditions: human, Michaelis-Menten fit, 95% confidence interval in square brackets
Method: as §1, §2, §3, §4

PLC/PRF/5 cells = assay: as above; type: in vitro ADME; conditions: for Vmax (uptake of MKH-ester): PLC/PRF/5 cells, Michaelis-Menten fit, 95% confidence interval in square brackets
Method: as §1, §2, §3, §4

[2] = parameters: method as in PMID 17537874, PMID 10077437; conditions: cited from earlier work
[3] = Hydrolysis of MKH-SUC in isotonic buffer solution (PBS); type: physicochemical; conditions: in PBS at 37 °C; read-out: Half-life toward MKH (converted)
Method: Next, a time course of MKH delivery with the MKH derivatives, including MK-4, was investigated. The AUC0–24h values for MKO after treatment of MKH-SUC was the highest among the three MKH-derivatives in both HCC cell lines, and the AUC0–24h values for MKH after treatment of MKH-SUC were also the highest (Table 3). […] However, the difference in MKH delivery was not higher than that of the regeneration to MKH by the esterase of HCC (Figure 4 and Table 2). […] These differences may result from the actual amount (nearly equal to Vmax values) of uptake and the regeneration step between MKH-ACT and MKH-DMG, and the rates of transportation/enzymatic reactions to the substances (Km) of MKH-ACT and MKH-DMG may be sufficient to reach Vmax under the test conditions shown in Figure 5. […] Regarding the decrease of MK-4 after 24 h treatment of MKH-SUC in both cells (Figure 5D,H), this phenomenon may be explained by the disposition of hydrolysis of MKH-SUC in an isotonic buffer solution. […] This is because, at 24 h, the delivery of MKH, which acts as a cofactor of GGCX, remained sufficient, but excess MKH that would be oxidized to MK-4 may be reduced with the elimination of MKH-SUC.

[4] = PLC/PRF/5 cells (HCC cell line), PLC/PRF/5 cells

Row | Structure (SMILES) | melting point | Vmax (uptake of MKH-ester) (SK-Hep-1 cells) | Km [1, 4] | Km ([1]; SK-Hep-1 cells (HCC cell line)) | Vmax (uptake of MKH-ester) (PLC/PRF/5 cells) | Hydrolysis in human plasma [2] | half-life [3] | Vmax/Km of uptake, higher than those for MKH-ACT and MKH-DMG (PLC/PRF/5 cells; in both cell lines (PLC/PRF/5 and SK-Hep-1))
1 | CC(=O)Oc1c(C)c(C/C=C(\C)CC/C=C(\C)CC/C=C(\C)CCC=C(C)C)c(OC(C)=O)c2ccccc12 [MKH-ACT, Menahydroquinone-4 1,4-bis acetate] | 39 to 41 °C | 20.3 [−9.47 to 50.0] nmol·mg of Protein^−1·h^−1 | 31.9 µM | 227 µM | 2.76 [1.70 to 3.81] nmol·mg of Protein^−1·h^−1 | – | – | –
2 | CC(C)=CCC/C(C)=C/CC/C(C)=C/CC/C(C)=C/Cc1c(C)c(OC(=O)CN(C)C)c2ccccc2c1OC(=O)CN(C)C [MKH-DMG, Menahydroquinone-4 1,4-bis-N,N-dimethylglycinate hydrochloride] | – | 62.6 [4.69 to 121] nmol·mg of Protein^−1·h^−1 | 447 µM | 556 µM | 28.9 [−4.27 to 62.1] nmol·mg of Protein^−1·h^−1 | not accelerated | – | –
3 | CC(C)=CCC/C(C)=C/CC/C(C)=C/CC/C(C)=C/Cc1c(C)c(OC(=O)CCC(=O)O)c2ccccc2c1OC(=O)CCC(=O)O [MKH-SUC, Menahydroquinone-4 1,4-bis hemisuccinate] | – | 261 [74.7 to 448] nmol·mg of Protein^−1·h^−1 | 712 µM | 381 µM | 345 [84.0 to 606] nmol·mg of Protein^−1·h^−1 | – | ~1500 min | 5- to 10 fold

— PMC6100056, “Antitumor Effects and Delivery Profiles of Menahydroquinone-4 Prodrugs with Ionic or Nonionic Promoiety to Hepatocellular Carcinoma Cells” (Molecules : A Journal of Synthetic Chemistry and Natural …, 2018)
